Measured values reported in patent US20230104936A1, “TRPML MODULATORS” (Casma Therapeutics, Inc., priority 2019, published 2023).

System: TFEB
Assay: TFEB nuclear translocation assay, HeLa wt cells
Format: cell-based
Details: Homo sapiens, HeLa, 2 h, 2 hrs compound treatment, Table 1 does not say HeLa wt or TRPML1 KO
Summary of the method: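 HeLa wt cells were treated with compound for 2 hrs at 37° C, then fixed in 4% PFA and immunostained for TFEB with an Alexa 488 secondary and Hoechst nuclear counterstain. Automated epifluorescence imaging at ×20 gave the ratio of nuclear TFEB intensity to a perinuclear ring region, from which AC50 was derived.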

SMILES	AC50 [µM]
O=S1(=O)CCC2(CC1)CN(c1ccc(Cl)cc1NS(=O)(=O)c1ccc3c(c1)CCC3)CCO2 [Compound A-317, N-(5-chloro-2-{9,9-dioxo-1-oxa-9λ^6-thia-4-azaspiro[5.5]undecan-4-yl}phenyl)-2,3-dihydro-1H-indene-5-sulfonamide]	2.01 to 8
CN1CC(c2ccccc2)C2(CCN(c3ccccc3NS(=O)(=O)c3ccc(S(=O)(=O)N(C)C)cc3)CC2)C1=O (centres unmarked) [Compound A-318, N1,N1-dimethyl-N4-(2-{2-methyl-1-oxo-4-phenyl-2,8-diazaspiro[4.5]decan-8-yl}phenyl)benzene-1,4-disulfonamide]	2.01 to 8
CS(=O)(=O)c1ccc(S(=O)(=O)Nc2ccccc2N2CCC3(CC2)COc2cc(F)ccc23)cc1 [Compound A-319, N-(2-{6-fluoro-2H-spiro[1-benzofuran-3,4′-piperidin]-1′-yl}phenyl)-4-methanesulfonylbenzene-1-sulfonamide]	≤ 2
CN1CC2(CCN(c3ccccc3NS(=O)(=O)c3ccc(S(C)(=O)=O)cc3)CC2)c2ncccc21 [Compound A-320, 4-methanesulfonyl-N-(2-{1′-methyl-1′,2′-dihydrospiro[piperidine-4,3′-pyrrolo[3,2-b]pyridin]-1-yl}phenyl)benzene-1-sulfonamide; formic acid]	≥ 10
CN(C)S(=N)(=O)c1ccc(S(=O)(=O)Nc2ccccc2N2CCN(C(=O)C(C)(C)C)CC2)cc1 (centres unmarked) [Compound A-321, 4-({2-[4-(2,2-dimethylpropanoyl)piperazin-1-yl]phenyl}sulfamoyl)-N,N-dimethylbenzene-1-sulfonoimidamide]	≥ 10
CC(C)C(=O)N1CCN(c2ccccc2NS(=O)(=O)c2ccc(S(=O)(=O)N(C)C)cc2)CC1 [Compound A-322, N1,N1-dimethyl-N4-{2-[4-(2-methylpropanoyl)piperazin-1-yl]phenyl}benzene-1,4-disulfonamide]	8.01 to 9.99
CN(C)S(=O)(=O)c1ccc(S(=O)(=O)Nc2ccccc2N2CCC(C(=O)NC(C)(C)C)CC2)cc1 [Compound A-323, N-tert-butyl-1-{2-[4-(dimethylsulfamoyl)benzenesulfonamido]phenyl}piperidine-4-carboxamide]	2.01 to 8
CC(C)(C)C(=O)N1CCN(c2ccccc2NS(=O)(=O)c2ccc(S(C)(=O)=O)cc2)CC1 [Compound A-324, N-{2-[4-(2,2-dimethylpropanoyl)piperazin-1-yl]phenyl}-4-methanesulfonylbenzene-1-sulfonamide]	≥ 10
CN(C)C(=O)N1CCN(c2ccccc2NS(=O)(=O)c2ccc(S(=O)(=O)N(C)C)cc2)CC1 [Compound A-325, 4-{2-[4-(dimethylsulfamoyl)benzenesulfonamido]phenyl}-N,N-dimethylpiperazine-1-carboxamide]	≥ 10
O=C1COCCN1c1ccc(Cl)cc1NS(=O)(=O)c1ccc2c(c1)CCC2 [Compound A-326, N-[5-chloro-2-(3-oxomorpholin-4-yl)phenyl]-2,3-dihydro-1H-indene-5-sulfonamide]	≥ 10
CN(C)S(=O)(=O)c1ccc(S(=O)(=O)Cc2cccc(Cl)c2N2CCOCC2)cc1 [Compound A-327, 4-{[3-chloro-2-(morpholin-4-yl)phenyl]methanesulfonyl}-N,N-dimethylbenzene-1-sulfonamide]	≥ 10
O=S(=O)(Nc1cc(Cl)ccc1N1CCC2(CCCO2)CC1)c1ccc2c(c1)CCC2 [Compound A-328, N-(5-chloro-2-{1-oxa-8-azaspiro[4.5]decan-8-yl}phenyl)-2,3-dihydro-1H-indene-5-sulfonamide]	≥ 10
Cn1nccc1S(=O)(=O)Nc1cccc(Cl)c1N1CCOCC1 [Compound A-329, N-[3-chloro-2-(morpholin-4-yl)phenyl]-1-methyl-1H-pyrazole-5-sulfonamide]	≥ 10
CN(C)S(=O)(=O)c1ccc(S(=O)(=O)Nc2cc(Cl)ccc2N2CCOCC2)nc1 [Compound A-330, N2-[5-chloro-2-(morpholin-4-yl)phenyl]-N5,N5-dimethylpyridine-2,5-disulfonamide]	≥ 10
CN1CC2(CCN(c3ccccc3NS(=O)(=O)c3ccc(S(=O)(=O)N(C)C)cc3)CC2)c2cccnc21 [Compound A-331, N1,N1-dimethyl-N4-(2-{1′-methyl-1′,2′-dihydrospiro[piperidine-4,3′-pyrrolo[2,3-b]pyridin]-1-yl}phenyl)benzene-1,4-disulfonamide]	≤ 2
CS(=O)(=O)c1ccc(S(=O)(=O)Nc2ccccc2N2CCC3(CC2)OCc2cc(F)ccc23)cc1 [Compound A-332, N-(2-{5-fluoro-3H-spiro[2-benzofuran-1,4′-piperidin]-1′-yl}phenyl)-4-methanesulfonylbenzene-1-sulfonamide]	2.01 to 8
CS(=O)(=O)c1ccc(S(=O)(=O)Nc2ccccc2N2CCC3(CCO3)CC2)cc1 [Compound A-333, 4-methanesulfonyl-N-(2-{1-oxa-7-azaspiro[3.5]nonan-7-yl}phenyl)benzene-1-sulfonamide]	≥ 10
Cc1ccc(S(=O)(=O)Nc2ccccc2N2CCN(C(=O)C(C)c3ccccc3)CC2)cc1 (centres unmarked) [Compound A-334, 4-methyl-N-{2-[4-(2-phenylpropanoyl)piperazin-1-yl]phenyl}benzene-1-sulfonamide]	2.01 to 8

SMILES	AC50 [µM]
CN(C)S(=O)(=O)c1ccc(S(=O)(=O)Nc2ccccc2N2CCN(C(=O)C(O)c3ccccc3)CC2)cc1 (centres unmarked) [Compound A-335, N4-{2-[4-(2-hydroxy-2-phenylacetyl)piperazin-1-yl]phenyl}-N1,N1-dimethylbenzene-1,4-disulfonamide]	≥ 10
CC(C)OC(=O)N1CCN(c2ccccc2NS(=O)(=O)c2ccc(S(=O)(=O)N(C)C)cc2)CC1 [Compound A-336, propan-2-yl 4-{2-[4-(dimethylsulfamoyl)benzenesulfonamido]phenyl}piperazine-1-carboxylate]	≤ 2
CN(C)S(=O)(=O)c1ccc(S(=O)(=O)Nc2ccccc2N2CCN(C(C)(C)C)CC2)cc1 [Compound A-337, N4-[2-(4-tert-butylpiperazin-1-yl)phenyl]-N1,N1-dimethylbenzene-1,4-disulfonamide]	8.01 to 9.99
CN(C)S(=O)(=O)c1ccc(S(=O)(=O)Nc2ccccc2N2CCC(C(=O)Nc3ccccc3)CC2)cc1 [Compound A-338, 1-{2-[4-(dimethylsulfamoyl)benzenesulfonamido]phenyl}-N-phenylpiperidine-4-carboxamide]	2.01 to 8
CN(C(=O)C1CCN(c2ccccc2NS(=O)(=O)c2ccc(S(=O)(=O)N(C)C)cc2)CC1)c1ccccc1 [Compound A-339, 1-{2-[4-(dimethylsulfamoyl)benzenesulfonamido]phenyl}-N-methyl-N-phenylpiperidine-4-carboxamide]	2.01 to 8
CN(C)S(=O)(=O)c1ccc(S(=O)(=O)Nc2cccc(Cl)c2N2CCOCC2)nc1 [Compound A-340, N2-[3-chloro-2-(morpholin-4-yl)phenyl]-N5,N5-dimethylpyridine-2,5-disulfonamide]	≥ 10
O=S(=O)(Nc1cccc(Cl)c1N1CCC(c2ccc(Cl)cc2F)CC1)c1ccc2c(c1)CCC2 [Compound A-341, N-{3-chloro-2-[4-(4-chloro-2-fluorophenyl)piperidin-1-yl]phenyl}-2,3-dihydro-1H-indene-5-sulfonamide]	≤ 2
CN(C)S(=O)(=O)c1ccc(C(Nc2cccc(Cl)c2N2CCOCC2)C(F)(F)F)cc1 (centres unmarked) [Compound A-342, 4-(1-{[3-chloro-2-(morpholin-4-yl)phenyl]amino}-2,2,2-trifluoroethyl)-N,N-dimethylbenzene-1-sulfonamide]	8.01 to 9.99
O=S(=O)(Nc1cc(Cl)ccc1N1CCOC2(CCOCC2)C1)c1ccc2c(c1)CCC2 [Compound A-343, N-(5-chloro-2-{1,9-dioxa-4-azaspiro[5.5]undecan-4-yl}phenyl)-2,3-dihydro-1H-indene-5-sulfonamide]	2.01 to 8
O=S(=O)(Nc1cc(Cl)ccc1N1CC23CCC2(COC3)C1)c1ccc2c(c1)CCC2 (centres unmarked) [Compound A-344, N-(5-chloro-2-{3-oxa-7-azatricyclo[3.3.2.0^1,^5]decan-7-yl}phenyl)-2,3-dihydro-1H-indene-5-sulfonamide]	2.01 to 8
O=S(=O)(Nc1cc(Cl)ccc1N1CCCC2(COC2)C1)c1ccc2c(c1)CCC2 [Compound A-345, N-(5-chloro-2-{2-oxa-6-azaspiro[3.5]nonan-6-yl}phenyl)-2,3-dihydro-1H-indene-5-sulfonamide]	2.01 to 8
O=S(=O)(Nc1cc(Cl)ccc1N1CCCC12CCOC2)c1ccc2c(c1)CCC2 (centres unmarked) [Compound A-346, N-(5-chloro-2-{7-oxa-1-azaspiro[4.4]nonan-1-yl}phenyl)-2,3-dihydro-1H-indene-5-sulfonamide]	≤ 2
O=S(=O)(Nc1cc(Cl)ccc1N1CCCC2(CCCOC2)C1)c1ccc2c(c1)CCC2 (centres unmarked) [Compound A-347, N-(5-chloro-2-{2-oxa-8-azaspiro[5.5]undecan-8-yl}phenyl)-2,3-dihydro-1H-indene-5-sulfonamide]	≤ 2
CN1CC2(CCN(c3ccccc3NS(=O)(=O)c3ccc(S(C)(=O)=O)cc3)CC2)c2cccnc21 [Compound A-348, 4-methanesulfonyl-N-(2-{1′-methyl-1′,2′-dihydrospiro[piperidine-4,3′-pyrrolo[2,3-b]pyridin]-1-yl}phenyl)benzene-1-sulfonamide]	8.01 to 9.99
Cc1ccc(S(=O)(=O)Nc2ccccc2N2CCN(C(=O)C(O)c3ccccc3)CC2)cc1 (centres unmarked) [Compound A-349, N-{2-[4-(2-hydroxy-2-phenylacetyl)piperazin-1-yl]phenyl}-4-methylbenzene-1-sulfonamide]	≥ 10
Cc1ccc(S(=O)(=O)Nc2ccccc2N2CCN(C(=O)C(=O)c3ccccc3)CC2)cc1 [Compound A-350, 4-methyl-N-{2-[4-(2-oxo-2-phenylacetyl)piperazin-1-yl]phenyl}benzene-1-sulfonamide]	2.01 to 8
CCS(=O)(=O)c1ccc(S(=O)(=O)Nc2ccccc2N2CCN(C(=O)C(C)(C)C)CC2)cc1 [Compound A-351, N-{2-[4-(2,2-dimethylpropanoyl)piperazin-1-yl]phenyl}-4-(ethanesulfonyl)benzene-1-sulfonamide]	≥ 10
